# In US10961301B2, “Cell-penetrating anti-DNA antibodies and uses thereof inhibit DNA repair” (Yale University, priority 2011, dated 2021):
# How the values were obtained:
# [1] = tested on: BRCA2-deficient PEO1 ovarian cancer cells; conditions: 3 days after treatment; 3 nM doxorubicin, 10 μM 3E10
# [2] = tested on: BRCA2-proficient PEO1 C4-2 ovarian cancer cells; conditions: 3 days after treatment; 3 nM doxorubicin, 10 μM 3E10
smiles,measurement,setting,value
COc1cccc2c1C(=O)c1c(O)c3c(c(O)c1C2=O)C[C@@](O)(C(=O)CO)C[C@@H]3O[C@H]1C[C@H](N)[C@H](O)[C@H](C)O1 [doxorubicin],"cell death, BRCA2-deficient cells",[1],not significantly toxic
same,"cell death, BRCA2-proficient cells",[2],not significantly toxic
